Assay results: article PMC3857843, “Multiple Transport-Active Binding Sites Are Available for a Single Substrate on Human P-Glycoprotein (ABCB1)” (PLoS ONE, 2013)

Tests used:
[1] = molecular target: T1, cysless WT Pgp (Homo sapiens, UniProt P08183, C1074A/C1125A/C1227A/C137A/C431A/C717A/C956A); test: Inhibition of IAAP photo-labeling of Pgp in crude membranes
Description: (§1) Then, samples were photocrosslinked with IAAP at 4°C as described in the Materials and Methods section. Mean values from at least three independent experiments are plotted and error bars depict SD.
(§2) High-Five insect cells (Invitrogen, Carlsbad, CA) were infected with recombinant baculovirus carrying the human MDR1 cDNA cysless WT and various mutant Pgps, with a His6-tag at the C-terminus as described previously. Crude membranes were prepared as described previously
(§3) The crude membranes of High-Five insect cells containing 60-80 µg protein per 100 µL in 50 mM MES-Tris buffer (pH 6.8), were incubated for 10 minutes at 37°C in the absence (control) and presence of compound(s) at indicated concentration.

[2] = molecular target: F978C mutant Pgp (human MDR1) (Homo sapiens, UniProt P08183, C1074A/C1125A/C1227A/C137A/C431A/C717A/C956A/F978C); test: in vitro; conditions: human, pH 6.8
Description: as §1, §2, §3

[3] = molecular target: V982C mutant Pgp (human MDR1) (Homo sapiens, UniProt P08183, C1074A/C1125A/C1227A/C137A/C431A/C717A/C956A/V982C); test: in vitro; conditions: human, pH 6.8
Description: as §1, §2, §3

[4] = molecular target: T2, Y307C/Q725C/V982C mutant Pgp (Homo sapiens, UniProt P08183, C1074A/C1125A/C1227A/C137A/C431A/C717A/C956A/Q725C/V982C/Y307C); test: in vitro
T2 sequence (P08183 whole entry C137A/Y307C/C431A/C717A/Q725C/C956A/V982C/C1074A/C1125A/C1227A): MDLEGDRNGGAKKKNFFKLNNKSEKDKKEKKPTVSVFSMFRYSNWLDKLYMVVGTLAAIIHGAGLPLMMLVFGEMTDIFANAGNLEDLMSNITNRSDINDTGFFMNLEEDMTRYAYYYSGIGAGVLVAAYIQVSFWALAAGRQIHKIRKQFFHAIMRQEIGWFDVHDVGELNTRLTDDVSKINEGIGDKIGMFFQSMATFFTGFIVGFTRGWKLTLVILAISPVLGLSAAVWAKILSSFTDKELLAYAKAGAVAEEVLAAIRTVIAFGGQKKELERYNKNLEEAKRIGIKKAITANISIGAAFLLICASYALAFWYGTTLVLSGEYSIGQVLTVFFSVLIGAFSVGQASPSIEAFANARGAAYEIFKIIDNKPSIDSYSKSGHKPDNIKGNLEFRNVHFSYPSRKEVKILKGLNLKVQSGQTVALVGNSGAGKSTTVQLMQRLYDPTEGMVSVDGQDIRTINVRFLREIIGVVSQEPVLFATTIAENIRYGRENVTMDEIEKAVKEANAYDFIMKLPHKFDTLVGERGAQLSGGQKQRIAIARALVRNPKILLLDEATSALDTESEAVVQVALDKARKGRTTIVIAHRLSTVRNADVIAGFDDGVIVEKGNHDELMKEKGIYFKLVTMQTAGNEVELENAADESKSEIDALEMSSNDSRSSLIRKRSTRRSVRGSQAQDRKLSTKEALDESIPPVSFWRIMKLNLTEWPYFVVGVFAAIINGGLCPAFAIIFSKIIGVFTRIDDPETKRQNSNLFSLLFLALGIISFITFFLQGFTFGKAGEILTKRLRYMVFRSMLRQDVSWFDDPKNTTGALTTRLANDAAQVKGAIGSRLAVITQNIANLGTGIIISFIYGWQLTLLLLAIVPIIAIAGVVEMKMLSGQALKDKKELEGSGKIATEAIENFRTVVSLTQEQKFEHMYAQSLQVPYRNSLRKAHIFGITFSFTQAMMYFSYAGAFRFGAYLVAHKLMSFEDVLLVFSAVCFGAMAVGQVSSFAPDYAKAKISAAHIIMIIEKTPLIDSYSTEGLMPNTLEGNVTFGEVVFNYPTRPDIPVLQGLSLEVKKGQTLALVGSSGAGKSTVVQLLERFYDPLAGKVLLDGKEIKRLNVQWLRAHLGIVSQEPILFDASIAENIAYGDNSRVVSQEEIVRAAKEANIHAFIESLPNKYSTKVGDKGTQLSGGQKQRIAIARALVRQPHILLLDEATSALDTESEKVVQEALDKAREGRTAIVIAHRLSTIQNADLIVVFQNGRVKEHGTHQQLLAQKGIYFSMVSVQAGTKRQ
Description: as §1, §2, §3

[5] = molecular target: T3, F978C mutant Pgp (Homo sapiens, UniProt P08183, C1074A/C1125A/C1227A/C137A/C431A/C717A/C956A/F978C); test: biochemical
T3 sequence (P08183 whole entry C137A/C431A/C717A/C956A/F978C/C1074A/C1125A/C1227A): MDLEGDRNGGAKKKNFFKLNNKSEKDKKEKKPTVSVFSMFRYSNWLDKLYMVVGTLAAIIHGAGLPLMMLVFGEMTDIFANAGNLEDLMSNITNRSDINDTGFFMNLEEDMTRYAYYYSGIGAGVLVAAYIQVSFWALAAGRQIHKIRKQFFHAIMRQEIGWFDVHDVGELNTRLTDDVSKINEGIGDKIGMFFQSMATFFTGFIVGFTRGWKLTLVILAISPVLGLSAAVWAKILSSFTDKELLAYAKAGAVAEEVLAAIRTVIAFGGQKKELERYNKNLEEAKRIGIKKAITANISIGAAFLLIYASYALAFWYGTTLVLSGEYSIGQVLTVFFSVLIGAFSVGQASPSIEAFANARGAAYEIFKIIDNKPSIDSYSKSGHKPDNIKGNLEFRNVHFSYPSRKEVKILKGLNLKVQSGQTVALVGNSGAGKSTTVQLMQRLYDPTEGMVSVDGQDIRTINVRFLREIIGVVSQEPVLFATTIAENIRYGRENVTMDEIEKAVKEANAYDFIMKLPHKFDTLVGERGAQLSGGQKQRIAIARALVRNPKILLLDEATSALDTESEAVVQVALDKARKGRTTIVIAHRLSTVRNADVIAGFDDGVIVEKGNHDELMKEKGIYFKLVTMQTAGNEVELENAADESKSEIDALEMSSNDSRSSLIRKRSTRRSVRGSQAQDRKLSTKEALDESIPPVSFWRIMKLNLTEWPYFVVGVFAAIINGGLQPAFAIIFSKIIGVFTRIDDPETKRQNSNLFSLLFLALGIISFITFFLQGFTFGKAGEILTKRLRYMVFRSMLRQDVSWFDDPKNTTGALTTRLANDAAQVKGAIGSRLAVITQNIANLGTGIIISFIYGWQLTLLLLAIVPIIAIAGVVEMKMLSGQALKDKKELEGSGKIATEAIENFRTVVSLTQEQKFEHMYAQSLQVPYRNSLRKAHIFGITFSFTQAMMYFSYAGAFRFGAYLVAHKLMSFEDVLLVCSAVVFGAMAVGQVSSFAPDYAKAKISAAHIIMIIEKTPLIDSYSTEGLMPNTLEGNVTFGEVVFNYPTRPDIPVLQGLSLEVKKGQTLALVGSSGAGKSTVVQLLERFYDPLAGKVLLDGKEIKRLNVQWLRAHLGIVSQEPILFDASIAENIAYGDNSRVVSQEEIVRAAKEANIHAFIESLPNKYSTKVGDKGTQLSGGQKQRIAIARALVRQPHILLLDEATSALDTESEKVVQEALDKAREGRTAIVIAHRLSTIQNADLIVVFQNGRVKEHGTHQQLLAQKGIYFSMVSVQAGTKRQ
Description: as §1, §2, §3

[6] = molecular target: F728C mutant Pgp (human MDR1) (Homo sapiens, UniProt P08183, C1074A/C1125A/C1227A/C137A/C431A/C717A/C956A/F728C); test: in vitro; conditions: pH 6.8
Description: as §1, §2, §3

[7] = molecular target: Q725C mutant Pgp (human MDR1) (Homo sapiens, UniProt P08183, C1074A/C1125A/C1227A/C137A/C431A/C717A/C956A/Q725C); test: in vitro; conditions: pH 6.8
Description: as §1, §2, §3

[8] = molecular target: T4, V982C mutant Pgp (Homo sapiens, UniProt P08183, C1074A/C1125A/C1227A/C137A/C431A/C717A/C956A/V982C); test: biochemical
Description: as §1, §2, §3

[9] = molecular target: cysless WT Pgp (human MDR1) (Homo sapiens, UniProt P08183, C1074A/C1125A/C1227A/C137A/C431A/C717A/C956A); test: in vitro; conditions: human, pH 6.8
Description: as §1, §2, §3

[10] = molecular target: Q725C/V982C mutant Pgp (human MDR1) (Homo sapiens, UniProt P08183, C1074A/C1125A/C1227A/C137A/C431A/C717A/C956A/Q725C/V982C); test: in vitro; conditions: pH 6.8
Description: as §1, §2, §3

[11] = molecular target: Y307C/Q725C/V982C mutant Pgp (human MDR1) (Homo sapiens, UniProt P08183, C1074A/C1125A/C1227A/C137A/C431A/C717A/C956A/Q725C/V982C/Y307C); test: in vitro; conditions: human, pH 6.8
Description: as §1, §2, §3

[12] = test system: all mutant Pgps; test: Vanadate-sensitive ATP hydrolysis of Pgp in crude membranes; assay type: biochemical, human; conditions: all mutant Pgps; inhibition measured in presence of verapamil 5 µM
Description: Crude membranes were prepared as described previously

[13] = molecular target: T1, cysless WT Pgp; test: as above; conditions: Verapamil 50 µM, QZ59-SSS 1 µM, Valinomycin 10 µM, FSBA 1 mM
Description: (§4) Vanadate-sensitive Pgp-mediated ATP hydrolysis was measured as described in Materials and Methods. […] At least two independent experiments were carried out for each mutant with indicated compounds. Additional information including standard deviations, fold-stimulation or % inhibition, and number of experiments is given in the section (Tables S2 and S3).
as §2
(§5) Crude membranes (10-25 µg protein/100 µ L) from High Five insect cells expressing cysless WT or mutant Pgp were incubated in the presence and absence of sodium orthovanadate (0.3 mM), in a buffer containing 50 mM MES-Tris pH 6.8, 50 mM KCl, 5 mM NaN3, 1 mM EGTA, 1 mM ouabain, 2 mM DTT, and 10 mM MgCl2. […] The reaction was initiated by addition of 5 mM ATP and continued for 20 min at 37°C. […] The reaction was stopped by addition of 100 µ L of 5% SDS and the amount of inorganic phosphate generated was quantified with a colorimetric reaction, as previously described.

[14] = molecular target: Y307C/V982C mutant Pgp (Homo sapiens, UniProt P08183, C1074A/C1125A/C1227A/C137A/C431A/C717A/C956A/V982C/Y307C); test: as above; conditions: Verapamil 50 µM, QZ59-SSS 1 µM, Valinomycin 10 µM, FSBA 1 mM
Description: as §4, §2, §5

[15] = molecular target: F343C/V982C mutant Pgp (Homo sapiens, UniProt P08183, C1074A/C1125A/C1227A/C137A/C431A/C717A/C956A/F343C/V982C); test: as above; conditions: Verapamil 50 µM, QZ59-SSS 1 µM, Valinomycin 10 µM, FSBA 1 mM
Description: as §4, §2, §5

[16] = molecular target: T2, Y307C/Q725C/V982C mutant Pgp; test: as above; conditions: Verapamil 50 µM, QZ59-SSS 1 µM, Valinomycin 10 µM, FSBA 1 mM
Description: as §4, §2, §5

[17] = molecular target: T3, F978C mutant Pgp; test: as above; conditions: Verapamil 50 µM, QZ59-SSS 1 µM, Valinomycin 10 µM
Description: as §4, §2, §5

[18] = molecular target: F728C mutant Pgp (Homo sapiens, UniProt P08183, C1074A/C1125A/C1227A/C137A/C431A/C717A/C956A/F728C); test: as above; conditions: Verapamil 50 µM, QZ59-SSS 1 µM, Valinomycin 10 µM, FSBA 1 mM
Description: as §4, §2, §5

[19] = molecular target: Q725A mutant Pgp (Homo sapiens, UniProt P08183, C1074A/C1125A/C1227A/C137A/C431A/C717A/C956A/Q725A); test: as above; conditions: Verapamil 50 µM, QZ59-SSS 1 µM, Valinomycin 10 µM
Q725A mutant Pgp, sequence (P08183 whole entry C137A/C431A/C717A/Q725A/C956A/C1074A/C1125A/C1227A): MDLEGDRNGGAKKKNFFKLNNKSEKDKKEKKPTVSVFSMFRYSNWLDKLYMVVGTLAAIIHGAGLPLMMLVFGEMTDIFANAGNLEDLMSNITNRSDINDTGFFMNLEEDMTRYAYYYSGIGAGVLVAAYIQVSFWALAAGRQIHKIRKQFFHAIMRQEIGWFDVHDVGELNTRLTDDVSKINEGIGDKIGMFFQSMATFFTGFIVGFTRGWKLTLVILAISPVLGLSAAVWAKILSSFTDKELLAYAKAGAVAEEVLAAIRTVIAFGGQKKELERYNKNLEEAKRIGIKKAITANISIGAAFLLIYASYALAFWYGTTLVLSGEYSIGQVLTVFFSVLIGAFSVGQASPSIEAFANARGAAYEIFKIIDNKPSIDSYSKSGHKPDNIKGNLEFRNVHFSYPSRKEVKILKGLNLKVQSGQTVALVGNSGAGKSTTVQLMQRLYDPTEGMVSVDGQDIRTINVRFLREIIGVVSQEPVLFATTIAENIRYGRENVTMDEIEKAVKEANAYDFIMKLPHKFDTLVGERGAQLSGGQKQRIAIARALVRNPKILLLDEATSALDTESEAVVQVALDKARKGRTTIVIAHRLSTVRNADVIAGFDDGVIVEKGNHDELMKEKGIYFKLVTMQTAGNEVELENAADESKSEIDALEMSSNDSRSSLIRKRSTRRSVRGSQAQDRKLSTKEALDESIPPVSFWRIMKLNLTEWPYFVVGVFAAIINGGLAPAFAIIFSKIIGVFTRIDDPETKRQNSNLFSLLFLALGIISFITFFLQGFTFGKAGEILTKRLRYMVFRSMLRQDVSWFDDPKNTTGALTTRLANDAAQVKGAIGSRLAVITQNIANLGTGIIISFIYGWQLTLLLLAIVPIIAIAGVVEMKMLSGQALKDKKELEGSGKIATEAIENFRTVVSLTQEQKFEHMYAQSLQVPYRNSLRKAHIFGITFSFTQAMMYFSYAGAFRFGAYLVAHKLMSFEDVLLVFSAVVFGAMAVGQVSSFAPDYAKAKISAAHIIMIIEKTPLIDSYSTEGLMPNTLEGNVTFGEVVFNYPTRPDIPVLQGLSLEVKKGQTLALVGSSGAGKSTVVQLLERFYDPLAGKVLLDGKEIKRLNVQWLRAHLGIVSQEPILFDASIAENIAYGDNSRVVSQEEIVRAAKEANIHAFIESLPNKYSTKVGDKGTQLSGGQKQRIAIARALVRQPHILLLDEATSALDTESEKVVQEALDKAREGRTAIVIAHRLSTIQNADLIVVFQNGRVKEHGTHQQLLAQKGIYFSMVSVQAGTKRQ
Description: as §4, §2, §5

[20] = molecular target: Q725C/V982C mutant Pgp (Homo sapiens, UniProt P08183, C1074A/C1125A/C1227A/C137A/C431A/C717A/C956A/Q725C/V982C); test: as above; conditions: Verapamil 50 µM, QZ59-SSS 1 µM, Valinomycin 10 µM, FSBA 1 mM
Description: as §4, §2, §5

[21] = molecular target: T4, V982C mutant Pgp; test: as above; conditions: Verapamil 50 µM, QZ59-SSS 1 µM, Valinomycin 10 µM, FSBA 1 mM
Description: as §4, §2, §5

[22] = molecular target: F728C/V982C mutant Pgp (Homo sapiens, UniProt P08183, C1074A/C1125A/C1227A/C137A/C431A/C717A/C956A/F728C/V982C); test: as above; conditions: Verapamil 50 µM, QZ59-SSS 1 µM, Valinomycin 10 µM, FSBA 1 mM
Description: as §4, §2, §5

[23] = molecular target: Y307C mutant Pgp (Homo sapiens, UniProt P08183, C1074A/C1125A/C1227A/C137A/C431A/C717A/C956A/Y307C); test: as above; conditions: Verapamil 50 µM, QZ59-SSS 1 µM, Valinomycin 10 µM, FSBA 1 mM
Description: as §4, §2, §5

[24] = molecular target: Q725C mutant Pgp (Homo sapiens, UniProt P08183, C1074A/C1125A/C1227A/C137A/C431A/C717A/C956A/Q725C); test: as above; conditions: Verapamil 50 µM, QZ59-SSS 1 µM, Valinomycin 10 µM, FSBA 1 mM
Description: as §4, §2, §5

T1 sequence (P08183 whole entry C137A/C431A/C717A/C956A/C1074A/C1125A/C1227A): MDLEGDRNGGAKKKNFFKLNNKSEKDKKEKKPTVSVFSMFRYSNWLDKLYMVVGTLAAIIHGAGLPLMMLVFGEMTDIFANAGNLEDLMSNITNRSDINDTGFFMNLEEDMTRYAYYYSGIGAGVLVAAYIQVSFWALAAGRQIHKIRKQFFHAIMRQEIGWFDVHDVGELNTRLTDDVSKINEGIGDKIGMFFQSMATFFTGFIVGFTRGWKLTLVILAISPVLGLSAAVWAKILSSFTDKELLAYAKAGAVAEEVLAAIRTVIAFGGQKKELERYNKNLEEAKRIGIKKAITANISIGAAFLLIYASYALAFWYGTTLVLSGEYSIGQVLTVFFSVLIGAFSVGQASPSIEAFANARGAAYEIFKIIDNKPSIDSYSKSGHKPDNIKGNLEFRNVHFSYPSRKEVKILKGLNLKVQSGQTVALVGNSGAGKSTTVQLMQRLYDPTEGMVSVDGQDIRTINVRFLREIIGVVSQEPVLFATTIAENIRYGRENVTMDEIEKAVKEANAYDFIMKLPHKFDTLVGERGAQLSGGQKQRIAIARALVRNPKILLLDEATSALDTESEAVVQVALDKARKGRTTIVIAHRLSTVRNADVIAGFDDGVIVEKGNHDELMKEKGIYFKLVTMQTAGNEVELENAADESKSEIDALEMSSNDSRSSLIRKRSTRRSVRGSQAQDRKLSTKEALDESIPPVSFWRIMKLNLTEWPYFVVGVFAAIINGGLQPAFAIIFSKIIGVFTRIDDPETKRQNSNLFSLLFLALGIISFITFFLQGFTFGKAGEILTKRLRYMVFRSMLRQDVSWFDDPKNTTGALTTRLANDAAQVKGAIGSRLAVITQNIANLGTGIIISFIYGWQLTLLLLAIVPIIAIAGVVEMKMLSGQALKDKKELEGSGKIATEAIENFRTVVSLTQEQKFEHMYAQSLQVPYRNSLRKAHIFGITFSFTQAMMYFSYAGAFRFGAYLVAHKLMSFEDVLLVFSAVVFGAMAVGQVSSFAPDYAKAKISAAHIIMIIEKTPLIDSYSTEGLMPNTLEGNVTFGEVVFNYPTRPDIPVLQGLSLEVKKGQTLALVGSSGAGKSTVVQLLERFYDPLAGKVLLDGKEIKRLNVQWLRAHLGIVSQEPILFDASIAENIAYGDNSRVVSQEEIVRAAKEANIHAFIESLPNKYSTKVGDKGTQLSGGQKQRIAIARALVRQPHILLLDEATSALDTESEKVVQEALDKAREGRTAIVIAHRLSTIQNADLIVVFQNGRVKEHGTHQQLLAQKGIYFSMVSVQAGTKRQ

## COc1cc2c(cc1OC)CN(CCc1ccc(NC(=O)c3cc(OC)c(OC)cc3NC(=O)c3cnc4ccccc4c3)cc1)CC2 [Tariquidar, tariquidar]
[1]
  IC50: 140 ± 30 nM
[2]
  inhibition at 10 min: 73%
[3]
  inhibition at 10 min: 64%
[4]
  Ability to inhibit IAAP photo-labeling: lose almost completely this ability
[5]
  IC50: 3600 nM
[6]
  inhibition at 10 min: 40%
[7]
  inhibition at 10 min: 37%
[8]
  IC50: 700 nM
[9]
  inhibition at 10 min: 97 ± 4%
[10]
  inhibition at 10 min: 22%
[11]
  inhibition at 10 min: 23%
[12]
  Modulation of ATP hydrolysis: found to be inhibited

## CC(C)[C@@H]1NC(=O)[C@H](C)OC(=O)[C@@H](C(C)C)NC(=O)[C@@H](C(C)C)OC(=O)[C@H](C(C)C)NC(=O)[C@H](C)OC(=O)[C@@H](C(C)C)NC(=O)[C@@H](C(C)C)OC(=O)[C@H](C(C)C)NC(=O)[C@H](C)OC(=O)[C@@H](C(C)C)NC(=O)[C@@H](C(C)C)OC1=O [valinomycin]
[1]
  IC50: 600 nM
[4]; Y307C/Q725C/V982C
  Ability to inhibit IAAP photo-labeling: lose almost completely this ability
[9]
  inhibition at 10 min: 82%
[13]
  ATP hydrolysis, Average: 40 nmoles Pi/min/mg protein
[13]; relative to basal
  ATP hydrolysis, Fold-stimulation: 1.9
[14]
  ATP hydrolysis, Average: 33 nmoles Pi/min/mg protein
[14]; relative to basal
  ATP hydrolysis, Fold-stimulation: 3.5
[15]
  ATP hydrolysis, Average: 56 nmoles Pi/min/mg protein
[15]; relative to basal
  ATP hydrolysis, Fold-stimulation: 3.1
[16]
  ATP hydrolysis, Average: 14 nmoles Pi/min/mg protein
[16]; relative to basal
  ATP hydrolysis, Fold-stimulation: 2.8
[17]
  ATP hydrolysis, Average: 18 nmoles Pi/min/mg protein
[17]; relative to basal
  ATP hydrolysis, Fold-stimulation: 1.5
[18]
  ATP hydrolysis, Average: 23 nmoles Pi/min/mg protein
[18]; relative to basal
  ATP hydrolysis, Fold-stimulation: 3.9
[19]
  ATP hydrolysis, Average: 11 nmoles Pi/min/mg protein
[19]; relative to basal
  ATP hydrolysis, Fold-stimulation: 2.1
[20]
  ATP hydrolysis, Average: 5 nmoles Pi/min/mg protein
[21]
  ATP hydrolysis, Average: 13 nmoles Pi/min/mg protein
[22]
  ATP hydrolysis, Average: 10 nmoles Pi/min/mg protein
[22]; relative to basal
  ATP hydrolysis, Fold-stimulation: 2.5
[23]
  ATP hydrolysis, Average: 17 nmoles Pi/min/mg protein
[23]; relative to basal
  ATP hydrolysis, Fold-stimulation: 2.2
[24]
  ATP hydrolysis, Average: 12 nmoles Pi/min/mg protein
[24]; relative to basal
  ATP hydrolysis, Fold-stimulation: 2.5
